This is an account of results in BindingDB's records for doi:10.1021/bi050490d (Case Western Reserve University, 2005).

One may read the Ki as a dissociation constant, usually derived from enzyme kinetics or from competition with a known ligand.

The test deals with Kappa-type opioid receptor (Homo sapiens, UniProt P41145).
Kappa-type opioid receptor, sequence (P41145 whole entry): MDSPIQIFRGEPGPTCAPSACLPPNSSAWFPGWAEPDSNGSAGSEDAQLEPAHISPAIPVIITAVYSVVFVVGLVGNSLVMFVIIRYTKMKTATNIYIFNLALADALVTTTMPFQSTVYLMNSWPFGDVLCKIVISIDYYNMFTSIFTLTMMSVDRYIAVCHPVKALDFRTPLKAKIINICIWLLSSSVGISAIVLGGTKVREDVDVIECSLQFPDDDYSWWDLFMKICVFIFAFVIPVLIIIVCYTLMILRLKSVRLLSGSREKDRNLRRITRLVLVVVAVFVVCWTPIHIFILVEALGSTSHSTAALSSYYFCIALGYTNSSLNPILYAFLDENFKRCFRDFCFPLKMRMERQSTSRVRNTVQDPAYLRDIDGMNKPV

The molecule `CC[C@H](C)[C@H](NC(=O)[C@H](CCCNC(=N)N)NC(=O)[C@H](CCCNC(=N)N)NC(=O)[C@H](CC(C)C)NC(=O)[C@H](Cc1ccccc1)NC(=O)CNC(=O)CNC(=O)[C@@H](N)Cc1ccc(O)cc1)C(=O)N[C@@H](CCCNC(=N)N)C(=O)N1CCC[C@H]1C(=O)N[C@@H](CCCCN)C(=O)N[C@@H](CC(C)C)C(=O)N[C@@H](CCCCN)C(=O)O` [Dynorphin A (1-13)] returned a Ki of 343 nM.
